# Reference: patent US8217042B2, “Pyridopyrazines and their use as modulators of kinases” (Zentaris GmbH, priority 2005, dated 2012)
# How the values were obtained:
# Jnk1 + Jnk2 = assay: Cell-free kinase assay (ALPHA technology), Jnk1 + Jnk2; assay type: biochemical; conditions: at 10 μM or 100 μM* ATP, recombinant human kinases
# Experimental: (§1) The inhibitory effect of the inventive compounds was tested on various human serine/threonine kinases, tyrosine kinases and lipid kinases in enzymatic assays. Recombinant human kinases, for example Erk2, PI3Kalpha, -beta, -gamma, -delta, p38alpha, p38gamma, Jnk1, Jnk2 and others were used, in some cases as full-length kinases, in some cases as truncated fragments—but at least consisting of the functional kinase domains. The commercial kinase proteins (Proqinase, Upstate) were used as recombinant fusion proteins with GST (glutathione S-transferase) tag or His tag. Depending on the substrate type, the different kinase reactions were quantified by means of suitable ALPHA™ beads (PerkinElmer). […]
# (§2) The fluorescence was detected the next morning in a Fusion™ alpha instrument (Perkin Elmer).
# (§3) The calculation of % inhibition values per substance concentration was done by means of the following formula from the raw data determined in the Fusion™ alpha:
# (§4) The controls were each determined 8 times, the substance samples each twice. 0% control contained neither any ATP nor any substrate; the 100% control contained no test substance. The IC50 values were determined with GraphPadPrism.
# PI3Kalpha = target: T1, PI3Kalpha (Homo sapiens, UniProt P42336); assay: Cell-free kinase assay (ALPHA technology), PI3K-ALPHA; assay type: biochemical; conditions: 100 μM ATP, recombinant human kinase
# T1 construct: in some cases as full-length kinases, in some cases as truncated fragments; purchased Upstate 14-602
# T1 sequence (P42336 whole entry, the tested form may be a part): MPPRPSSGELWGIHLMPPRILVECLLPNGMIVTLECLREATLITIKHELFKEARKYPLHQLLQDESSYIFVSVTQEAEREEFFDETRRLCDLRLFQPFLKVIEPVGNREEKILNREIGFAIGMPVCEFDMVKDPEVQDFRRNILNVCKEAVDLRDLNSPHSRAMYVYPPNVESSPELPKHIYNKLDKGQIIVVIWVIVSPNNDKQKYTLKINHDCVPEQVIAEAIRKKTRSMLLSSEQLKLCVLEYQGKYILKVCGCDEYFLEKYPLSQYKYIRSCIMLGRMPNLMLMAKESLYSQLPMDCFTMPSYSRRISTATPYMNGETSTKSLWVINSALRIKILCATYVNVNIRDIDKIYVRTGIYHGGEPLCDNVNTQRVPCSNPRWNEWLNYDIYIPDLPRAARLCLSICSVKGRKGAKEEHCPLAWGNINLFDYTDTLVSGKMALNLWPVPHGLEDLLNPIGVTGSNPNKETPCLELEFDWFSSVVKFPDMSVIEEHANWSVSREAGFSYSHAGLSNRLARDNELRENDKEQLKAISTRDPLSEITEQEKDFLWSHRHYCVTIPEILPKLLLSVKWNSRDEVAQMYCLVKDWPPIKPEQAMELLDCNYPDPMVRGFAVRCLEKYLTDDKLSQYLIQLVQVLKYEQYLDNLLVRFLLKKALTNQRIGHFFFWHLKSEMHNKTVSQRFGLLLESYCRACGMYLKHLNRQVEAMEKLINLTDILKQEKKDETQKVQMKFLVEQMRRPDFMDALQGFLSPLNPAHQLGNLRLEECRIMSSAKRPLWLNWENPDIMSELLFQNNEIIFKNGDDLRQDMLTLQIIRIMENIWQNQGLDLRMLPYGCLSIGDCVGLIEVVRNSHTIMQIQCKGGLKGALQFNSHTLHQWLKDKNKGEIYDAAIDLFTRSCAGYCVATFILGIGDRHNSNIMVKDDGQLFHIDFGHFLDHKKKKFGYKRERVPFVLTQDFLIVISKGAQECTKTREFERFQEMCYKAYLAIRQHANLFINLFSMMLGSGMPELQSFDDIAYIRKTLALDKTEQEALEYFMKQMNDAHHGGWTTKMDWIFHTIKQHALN
# T1 sequence (P27986 whole entry partner, the tested form may be a part): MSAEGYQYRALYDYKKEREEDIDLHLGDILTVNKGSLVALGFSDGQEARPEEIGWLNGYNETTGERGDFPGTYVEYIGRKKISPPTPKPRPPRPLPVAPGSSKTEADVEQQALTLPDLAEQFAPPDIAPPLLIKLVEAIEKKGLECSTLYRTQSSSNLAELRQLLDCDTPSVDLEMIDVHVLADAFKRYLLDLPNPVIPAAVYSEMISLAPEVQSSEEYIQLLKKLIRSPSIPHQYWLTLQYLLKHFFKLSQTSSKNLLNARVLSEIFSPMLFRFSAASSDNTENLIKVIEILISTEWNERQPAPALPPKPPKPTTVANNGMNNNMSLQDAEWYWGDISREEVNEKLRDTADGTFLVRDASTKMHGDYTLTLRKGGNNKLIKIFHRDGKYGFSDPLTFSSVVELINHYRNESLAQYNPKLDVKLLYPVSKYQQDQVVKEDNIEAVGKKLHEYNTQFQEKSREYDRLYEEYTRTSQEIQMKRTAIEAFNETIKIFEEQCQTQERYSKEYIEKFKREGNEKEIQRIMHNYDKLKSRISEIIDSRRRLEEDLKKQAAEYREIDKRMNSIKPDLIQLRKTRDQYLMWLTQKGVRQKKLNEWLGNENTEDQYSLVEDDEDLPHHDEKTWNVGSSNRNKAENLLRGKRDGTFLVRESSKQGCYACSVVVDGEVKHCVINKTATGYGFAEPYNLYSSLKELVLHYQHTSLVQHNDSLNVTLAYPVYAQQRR
# Experimental: (§5) The inhibitory effect of the inventive compounds was tested on various human serine/threonine kinases, tyrosine kinases and lipid kinases in enzymatic assays. Recombinant human kinases, for example Erk2, PI3Kalpha, -beta, -gamma, -delta, p38alpha, p38gamma, Jnk1, Jnk2 and others were used, in some cases as full-length kinases, in some cases as truncated fragments—but at least consisting of the functional kinase domains. The commercial kinase proteins (Proqinase, Upstate) were used as recombinant fusion proteins with GST (glutathione S-transferase) tag or His tag. Depending on the substrate type, the different kinase reactions were quantified by means of suitable ALPHA™ beads (PerkinElmer).
# (§6) The substrate testing on the Erk assay is described in detail below. Selected test results of the Erk2, PI3Kalpha assays are cited below. […] The kinase reaction was then stopped by adding 10 μl of the ALPHA bead mix (10 μg/ml, #6760617/PerkinElmer), pre-incubated with anti-phospho MBP antibody (320 μM, #05-429/Upstate), in 25 mM Tris, 200 mM NaCl, 100 mM EDTA and 0.3% BSA, and left to stand overnight. • b) PI3K-ALPHAs (e.g. PI3Kalpha): The test substance, 1 ng of PI3Kalpha (#14-602, Upstate), 100 μM ATP and 20 μM PIP2 substrate (#P4508, Echelon) on a 384-well Optiplate (Perkin Elmer) for 1 h in 50 mM Hepes, 50 mM NaCl, 5 mM MgCl2, 0.05% Chaps, 5 mM DTT at pH 7.4. Subsequently, the kinase reaction was stopped by adding the ALPHA bead mix (10 μg/ml, #6760603/PerkinElmer), preincubated with 1 nM GST:Grp1 fusion protein (Upstate) and 15 nM biotinylated PIP3 (#C-39B6/Echelon) in 50 mM Hepes, 50 mM NaCl, 50 mM EDTA and 0.1% BSA, and left to stand overnight.
# as §2, §3, §4
# p38alpha = target: T2, p38alpha (Homo sapiens, UniProt Q16539); assay: Cell-free kinase assay (ALPHA technology), p38alpha; assay type: biochemical; conditions: at 10 μM or 100 μM* ATP, recombinant human kinase
# T2 construct: in some cases as full-length kinases, in some cases as truncated fragments
# T2 sequence (Q16539 whole entry, the tested form may be a part): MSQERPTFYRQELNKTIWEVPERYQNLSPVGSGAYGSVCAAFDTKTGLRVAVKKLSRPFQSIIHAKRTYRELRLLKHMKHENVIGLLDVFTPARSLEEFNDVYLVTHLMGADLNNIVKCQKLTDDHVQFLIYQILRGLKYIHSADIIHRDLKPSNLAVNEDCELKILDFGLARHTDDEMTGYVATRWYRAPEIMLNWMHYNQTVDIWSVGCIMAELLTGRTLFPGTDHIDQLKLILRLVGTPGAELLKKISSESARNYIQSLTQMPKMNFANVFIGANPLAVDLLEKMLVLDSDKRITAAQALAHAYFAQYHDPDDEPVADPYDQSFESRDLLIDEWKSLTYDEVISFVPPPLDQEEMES
# Experimental: as §1, §2, §3, §4
# Erk2 = target: T3, Erk2; assay: Cell-free kinase assay (ALPHA technology), Erk2-ALPHA; assay type: biochemical; conditions: 10 μM ATP, recombinant human kinase
# T3 construct: in some cases as full-length kinases, in some cases as truncated fragments; purchased Upstate 14-173
# T3 sequence (P63085 whole entry, the tested form may be a part): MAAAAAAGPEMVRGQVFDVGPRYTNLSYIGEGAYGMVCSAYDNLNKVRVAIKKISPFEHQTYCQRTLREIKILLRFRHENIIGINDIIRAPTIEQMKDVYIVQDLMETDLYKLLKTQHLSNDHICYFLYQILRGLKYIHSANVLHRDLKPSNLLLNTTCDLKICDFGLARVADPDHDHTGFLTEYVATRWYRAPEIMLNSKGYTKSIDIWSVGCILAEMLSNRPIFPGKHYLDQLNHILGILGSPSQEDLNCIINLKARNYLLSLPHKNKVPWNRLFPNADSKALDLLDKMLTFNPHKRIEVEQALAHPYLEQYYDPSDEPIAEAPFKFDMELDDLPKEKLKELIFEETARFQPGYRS
# Experimental: as §5, §6, §2, §3, §4
# Hct116 = assay: XTT assay, anti-proliferative action, Hct116; assay type: cell-based; conditions: Homo sapiens, HCT-116, 45 h, Hct116 cells, 45 h incubation
# Experimental: (§7) The principle of this test is based on the intracellular reduction of the tetrazolium dye XTT (sodium 3′-[1-(phenylaminocarbonyl)-3,4-tetrazolium]bis(4-methoxy-6-nitro)benzenenesulphonic acid, Sigma) to a formazan dye by mitochondrial dehydrogenases.
# (§8) The dye is formed only by metabolically active cells; its photometrically measurable intensity is a quantitative indicator for the presence of living cells. The reduction in the dye formation as a result of incubation of the cells with substances serves as a parameter for the anti-proliferative action.
# (§9) The tumour cell lines (ATCC) were seeded in 96-well microtitre plates in a defined cell count (5000 cells/well for BxPC3 and Hct116; 10 000 cells/well for MDA MB468), and then incubated overnight in an incubator at 37° C., 5% CO2 and 95% air humidity. The test substances were made up as stock solutions (10 mM) in DMSO. […] The cell plates were then incubated for 45 h in an incubator at 37° C., 5% CO2 and 95% air humidity.
# (§10) For the detection reaction, the XTT substrate was admixed with PMS (N-methyldibenzopyrazine methylsulphate, Sigma) and added to the cells, so as to result in a final concentration of 325 μg of XTT/ml and 2.5 μg PMS/ml. The mixture was then incubated for 3 h at 37° C., 95% air humidity. Subsequently the formazan salt formed by cellular dehydrogenases was quantified at an absorption of 490 nm.
# (§11) The evaluation of the % inhibition values was done by means of the following formula from the values for the optical densities measured in each case at 490 nm:
# (§12) The controls were determined 8 times each, the substance samples twice each. 0% control contained no cells; the 100% control contained no test substance. The EC50 values were determined with GraphPadPrism.
# BxPC3 = assay: XTT assay, anti-proliferative action, BxPC3; assay type: cell-based; conditions: BxPC3 cells, 45 h incubation
# Experimental: as §7, §8, §9, §10, §11, §12
# MDA-MB468 = assay: XTT assay, anti-proliferative action, MDA-MB468; assay type: cell-based; conditions: MDA-MB468 cells, 45 h incubation
# Experimental: as §7, §8, §9, §10, §11, §12
# PI3K →pAkt = assay: Cellular substrate phosphorylation (Western blotting), PI3K substrate Akt; assay type: cell-based; conditions: 5 h, tumour cell line
# Experimental: (§13) This method enables a statement of whether the kinase modulator investigated achieves the desired effect in a cellular context too, i.e., in this case, a substrate protein downstream of the target kinase is examined for its phosphorylation status. To this end, the cells incubated with substance are lysed and the overall protein is separated on a reducing polyacrylamide gel. Subsequently, the proteins are transferred by means of Western blotting to a PVDF membrane and the substrate bands sought are made visible with specific antibodies and a suitable detection method. The substrate proteins downstream of the target kinases are detected simultaneously with an anti-phospho antibody which is specific in each case and simultaneously a total antibody which recognizes the substrate total protein. The duplex technology of the ODYSSEY imager (LiCOR) enables this simultaneous measurement. The intensity of the total substrate bands is employed to normalize and quantify the phosphorylation inhibition or activation.
# (§14) Suitable tumour cell lines (e.g. BxPC3, Hct116 or MDA MB468) were seeded into 6-well microtitre plates in a defined cell count (e.g. 350 000 cells/well for BxPC3 and Hct116) in the particular standard complete media and then incubated overnight in an incubator at 37° C., 5% CO2 and 95% air humidity. The cells were then incubated further for a further 24 h under reduced-serum conditions, i.e. in the particular medium except at only 0.25% serum. The test substances were made up as stock solutions (10 mM) in DMSO and incubated with the cells at final concentrations of 5, 15.8 and 50 μM for 5 h. This was followed by cell lysis in 25 mM Tris, 150 mM NaCl, 10 mM sodium pyrophosphate, 2 mM EGTA, 25 mM beta-glycerophosphate, 25 mM NaF, 10% glycerol, 0.75% NP-40, 100 μM NaVO4 buffer. After protein quantification by means of BCA (bicinchonic acid protein assay kit, Sigma) assay, amounts of protein of about 20 μg per track were separated on a Lammli polyacrylamide gel and then transferred onto a PVDF membrane (Millipore) by means of semi-dry Western blotting at 0.8 mA/cm^2 for 1 h. This was followed by prehybridization of the membrane for 1 hour in I-block reagent (Applied Biosystems) and overnight incubation with the specific antibodies. To determine the Erk and PI3K inhibition, the next substrates Rsk1 downstream were detected with the total antibody (Rsk #sc-231g C-21, Santa Cruz) and the phospho antibody (Phospho-p90RSK (S380) #9341, NEB Cell Signalling) and Akt with the total antibody (Akt1 #sc-20, Santa Cruz) and the phospho antibody (Phospho-Akt (Ser 473) #9271, NEB Cell Signaling). After the membrane had been washed, the secondary antibodies were incubated with anti-rabbit IR Dye 800 (#611-732-127, Rockland) for the phospho antibody and anti-goat Alexa Fluor 680 (#A-21081, […]) for the total protein antibody. After incubation for 30 min at room temperature in the dark, the hybridization of the detection antibody was detected on the membrane by scanning in an ODYSSEY imager (LiCOR).
# Erk →pRsk = assay: Cellular substrate phosphorylation (Western blotting), Erk substrate Rsk1; assay type: cell-based; conditions: 5 h, tumour cell line
# Experimental: as §13, §14
Structure (SMILES),IC50 (Jnk1 + Jnk2) [µM],IC50 (PI3Kalpha) [µM],melting point [°C],IC50 (p38alpha) [µM],IC50 (Erk2) [µM],EC50 (Hct116) [µM],EC50 (BxPC3) [µM],EC50 (MDA-MB468) [µM],"EC50 (MDA-MB468; Homo sapiens, MDA-MB-468, 45 h) [µM]",inhibition at 50 µM (PI3K →pAkt) [%],inhibition at 50 µM (Erk →pRsk) [%],"EC50 (BxPC3; Homo sapiens, BXPC-3, 45 h) [µM]"
"CCNC(=O)Nc1ccc2ncc(Nc3ccc(S(C)(=O)=O)cc3)nc2n1 [Compound 48, 1-Ethyl-3-[3-(4-methanesulphonylphenylamino)pyrido[2,3-b]pyrazin-6-yl]urea]",> 31.6,1.1,275 to 280,> 100,> 100,,,,,,,
"CCNC(=O)Nc1ccc2ncc(-c3ccc(OC(=O)OCCOC)cc3)nc2n1 [Compound 56, 4-[6-(3-Ethylurea)pyrido[2,3-b]pyrazin-3-yl]phenyl 2-methoxyethyl carbonate p-toluenesulphonate]",3.1,1.3,,,0.272,9.4,> 20,15.5,,,,
"CCNC(=O)Nc1ccc2ncc(Nc3ccc(CN4CCCCC4)cc3)nc2n1 [Compound 51, 1-Ethyl-3-[3-(4-piperidin-1-ylmethylphenylamino)pyrido[2,3-b]pyrazin-6-yl]urea]",> 31.6,7.5,221 to 224,> 100,19.1,,,,,,,
"CCNC(=O)Nc1ccc2ncc(Nc3cccc(C(=O)NC)c3)nc2n1 [Compound 50, 3-[6-(3-Ethylurea)pyrido[2,3-b]pyrazin-3-ylamino]-N-methylbenzamide]",> 31.6,0.683,228 to 234,18.1,4.7,,,,,,,
"CONC(=O)Nc1ccc2ncc(-c3ccc(O)c(OC)c3)nc2n1 [Compound 61, 1-Methoxy-3-[3-(4-hydroxy-3-methoxy-phenyl)-pyrido[2,3-b]pyrazin-6-yl]-urea]",2.1,1.5,,> 100,0.3,6,,,7.1,,,
"CCNC(=O)Nc1ccc2ncc(-c3ccc(CN4CCOCC4)cc3)nc2n1 [Compound 28, 1-Ethyl-3-[3-(4-morpholin-4-ylmethylphenyl)pyrido[2,3-b]pyrazin-6-yl]urea]",5,1.8,,> 100,0.364,,,,,,,
"CCNC(=O)Nc1ccc2ncc(-c3ccc(OC(=O)OCCOC)cc3)nc2n1 [Compound 10, 4-[6-(3-Ethylurea)pyrido[2,3-b]pyrazin-3-yl]phenyl(2-methoxyethyl)carbonate]",2.9,,230 to 232,,,,,,,100,100,
"CCNC(=O)Nc1ccc2ncc(-c3cccc(OC(=O)OCCOC)c3)nc2n1 [Compound 16, 3-[6-(3-Ethylurea)pyrido[2,3-b]pyrazin-3-yl]phenyl 2-methoxyethyl carbonate]",5.6,3.3,,,0.513,11,,,11,,,> 25
"CCNC(=O)Nc1ccc2ncc(-c3ccc(OCCOCCOC)cc3)nc2n1 [Compound 29, 1-Ethyl-3-(3-{4-[2-(2-methoxyethoxy)ethoxy]phenyl}pyrido[2,3-b]pyrazin-6-yl)urea]",24.2,2.3,,> 100,0.396,,,,,,,
"CCNC(=O)Nc1ccc2ncc(-c3ccc(OC(=O)OCC(C)C)cc3)nc2n1 [Compound 17, 4-[6-(3-Ethylurea)pyrido[2,3-b]pyrazin-3-yl]phenyl isobutyl carbonate]",> 100,11.8,,,0.167,3.4,,,> 25,,,> 25
